Data on six compounds can be found in publication PMC3500524 (Cancer cell, 2012).

One series addresses T1, PHGDH (Homo sapiens, UniProt O43175).
T1 sequence (O43175 1-533): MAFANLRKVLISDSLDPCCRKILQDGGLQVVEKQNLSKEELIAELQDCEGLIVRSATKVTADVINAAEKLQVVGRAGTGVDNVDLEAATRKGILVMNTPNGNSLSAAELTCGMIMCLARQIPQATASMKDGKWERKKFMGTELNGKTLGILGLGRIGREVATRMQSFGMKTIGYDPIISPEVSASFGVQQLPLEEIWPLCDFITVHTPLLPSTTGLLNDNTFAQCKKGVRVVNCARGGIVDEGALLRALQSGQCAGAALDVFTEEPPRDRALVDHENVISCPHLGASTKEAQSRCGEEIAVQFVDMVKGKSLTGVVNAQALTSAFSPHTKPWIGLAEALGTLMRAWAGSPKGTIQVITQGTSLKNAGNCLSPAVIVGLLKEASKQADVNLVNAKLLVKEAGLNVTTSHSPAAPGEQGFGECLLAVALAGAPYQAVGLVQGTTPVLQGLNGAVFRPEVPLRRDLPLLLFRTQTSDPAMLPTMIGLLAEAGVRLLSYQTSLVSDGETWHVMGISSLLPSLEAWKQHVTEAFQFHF
Nature of the series: PHGDH enzyme activity assay. The class given is biochemical.

For series [1], the target named is T2, 6PGD (Homo sapiens, UniProt P52209).
T2 sequence (P52209 1-483): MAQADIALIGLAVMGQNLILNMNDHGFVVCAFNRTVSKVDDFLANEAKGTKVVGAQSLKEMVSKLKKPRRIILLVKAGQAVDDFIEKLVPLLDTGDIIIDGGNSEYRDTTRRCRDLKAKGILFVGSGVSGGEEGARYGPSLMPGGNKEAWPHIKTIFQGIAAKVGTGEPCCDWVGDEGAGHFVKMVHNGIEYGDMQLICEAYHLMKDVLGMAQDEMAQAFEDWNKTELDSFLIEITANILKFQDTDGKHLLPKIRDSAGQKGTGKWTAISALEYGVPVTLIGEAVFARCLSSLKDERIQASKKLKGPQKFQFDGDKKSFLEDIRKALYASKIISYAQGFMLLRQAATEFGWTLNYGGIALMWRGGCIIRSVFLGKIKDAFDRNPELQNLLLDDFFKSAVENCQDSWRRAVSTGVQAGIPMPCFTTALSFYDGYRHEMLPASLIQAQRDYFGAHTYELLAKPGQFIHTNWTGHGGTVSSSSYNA
Nature of the series: in vitro 6PGD enzyme activity assay. The settings on record: H1299 cell lysates or r6PGD. Format: biochemical.

The next series concerns the target G6PD (Homo sapiens, UniProt P11413). Description: in vitro G6PD enzyme activity assay. Format: biochemical. The settings on record: increasing concentrations; H1299 cell lysates or rG6PD.
For series [2], the target named is T2, 6PGD. Description: 6PGD enzyme kinetics.
Series [3] concerns the target T2, 6PGD. Description: thermal melt shift assay of 6PGD with ligand. The class given is binding. The settings on record: read-out: Kd for protein (6PGD)-ligand interaction.
The subject of a further series is cancer cells. The following applies: ref Engel et al., 2004; Evans et al., 2005; cited from earlier work.
Another series deals with PGAM1 (Homo sapiens, UniProt P18669). The settings on record: intact cells, ref Evans et al., 2007, 2005; cited from earlier work.
Sequence of PGAM1 (P18669 whole entry): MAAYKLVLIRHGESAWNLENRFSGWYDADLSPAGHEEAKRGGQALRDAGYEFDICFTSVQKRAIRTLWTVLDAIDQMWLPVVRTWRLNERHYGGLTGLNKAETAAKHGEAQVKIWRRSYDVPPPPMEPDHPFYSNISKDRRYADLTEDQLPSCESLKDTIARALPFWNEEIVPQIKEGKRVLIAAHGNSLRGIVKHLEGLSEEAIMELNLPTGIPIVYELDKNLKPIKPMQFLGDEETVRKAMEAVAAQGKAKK
Series [4] deals with H1299 cells. Description: metabolism of H1299 cells under inhibitor treatment. Format: cell-based, human.
The test system of series [5] is diverse human cancer and leukemia cells. Description: cell proliferation / viability by trypan blue exclusion. The class given is cell-based.
Series [6] concerns primary leukemia cells from human patients. Description: treatment of primary leukemia cells from human patients. The class given is cell-based.
Series [7] relates to H1299 cells. Nature of the series: cell proliferation of H1299 cells. The class given is cell-based, human.
The next series concerns nude mice. Nature of the series: toxicity studies in nude mice. Format: in vivo.
Series [8] relates to human dermal fibroblasts (HDF), human foreskin fibroblasts (HFF), HaCaT keratinocyte cells, melanocyte PIG1 cells. Description: cell proliferation / viability of normal proliferating human cells. Format: cell-based.
In a further series the test system is H1299 xenograft. Description: H1299 xenograft in nude mice. Format: in vivo, mouse.
For series [9], the target named is purified human PGAM1 proteins (Homo sapiens, UniProt P18669). Description: PGAM1 enzyme assay. Format: biochemical. The following applies: comparison among alizarin and derivatives.
Sequence of purified human PGAM1 proteins (P18669 whole entry): as above
The test system of series [10] is human leukemia KG1a cells. Description: proliferation of KG1a cells. The settings on record: dose-dependent. Format: cell-based.
[11] abbreviates: primary leukemia cells, representative AML patient.
Where [12] appears, read: samples from 7 (1 CML and 6 AML) out of 8 leukemia patients.

The Ki is a dissociation constant, usually derived from enzyme kinetics or from competition with a known ligand. A word on the Kd: it is the constant that tells how readily two partners part at equilibrium.

Sequence of G6PD (P11413 whole entry): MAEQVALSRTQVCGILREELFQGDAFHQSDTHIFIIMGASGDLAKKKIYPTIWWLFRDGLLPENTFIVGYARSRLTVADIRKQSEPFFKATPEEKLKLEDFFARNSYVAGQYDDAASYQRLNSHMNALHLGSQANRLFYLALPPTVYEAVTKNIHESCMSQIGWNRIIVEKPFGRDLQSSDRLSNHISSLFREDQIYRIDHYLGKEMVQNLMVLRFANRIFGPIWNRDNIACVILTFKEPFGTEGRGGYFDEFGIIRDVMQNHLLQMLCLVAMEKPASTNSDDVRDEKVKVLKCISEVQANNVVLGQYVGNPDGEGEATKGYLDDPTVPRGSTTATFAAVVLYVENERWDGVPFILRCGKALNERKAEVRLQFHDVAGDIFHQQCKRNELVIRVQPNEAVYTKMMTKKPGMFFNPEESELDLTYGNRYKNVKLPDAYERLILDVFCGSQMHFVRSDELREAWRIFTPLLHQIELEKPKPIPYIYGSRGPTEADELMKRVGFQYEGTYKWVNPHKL

As for `O=C(O)[C@@H](CO)OP(=O)(O)O` [2-PG, 2-phosphoglycerate], the PHGDH activity entry on PHGDH (2-PG ~15μM) is reported as “did not significantly affect PHGDH activity”. In addition, the PHGDH enzyme activity result on PHGDH (2-PG ~45μM or ~60μM, H1299 PGAM1 knockdown cell lysates) was “higher PHGDH enzyme activity”. For the same compound, the “enzyme activity of recombinant PHGDH (rPHGDH)” value on PHGDH (increasing concentrations of 2-PG) is given as “increased enzyme activity of recombinant PHGDH”. Moreover, at 6PGD [1] (2-PG), the 6PGD enzyme activity result was “did not affect 6PGD enzyme activity”.

In the case of `O=C(O)[C@H](O)COP(=O)(O)O` [3-PG, 3-phosphoglycerate], the G6PD activity entry at G6PD is on record as “did not significantly affect G6PD activity”. For the same compound, the “mode of 6PGD inhibition” value on 6PGD [2] (Lineweaver-Burk plot, 3-PG ~250μM, 6-PG ~35μM) is “competitive inhibitor of 6PGD”. For the same compound, on 6PGD [2] (read-out: inhibition constant (Ki) of 6PGD, Dixon plot), the inhibition constant Ki came out at 489 ± 13 µM. On 6PGD [3], the Kd stood at 460 ± 40 µM. For the same compound, the 6PGD enzyme activity entry was “do not significantly affect 6PGD enzyme activity” on 6PGD [1] (3-PG ~60μM) and “decreased enzyme activity of 6PGD” on 6PGD [1] (3-PG ~250μM).

On to `C#CCCCC(=O)OC(C)(C)C1CCC2(CO2)C(OC(=O)NC(Cc2c[nH]c3ccccc23)C(=O)OCc2ccccc2)C1` (stereo not shown) [MJE3], for which the cancer cell proliferation result with cancer cells is “attenuates cancer cell proliferation”. Also, on PGAM1, the PGAM1 activity result was “specifically inhibits PGAM1 activity exclusively in intact cells”.

As to `O=C1c2ccccc2C(=O)c2c1cc(S(=O)(=O)Nc1ccc(C(F)(F)F)cc1)c(O)c2O` [PGMI-004A], in the series on H1299 cells [4], the 2-PG levels entry is “decreased 2-PG”, the 3-PG levels entry was “increased 3-PG levels”, the “biosynthesis of RNA” value was “reduced biosynthesis” and the biosynthesis of lipids entry is reported as “reduced biosynthesis of lipids”. In the series with H1299 cells [4], the “intracellular ATP levels” value is reported as “no significant effect on intracellular ATP levels”, the lactate production entry is “significantly reduced lactate production” and the “oxidative PPP flux” value is given as “decreased oxidative PPP flux”. Moreover, the cell proliferation result in series [5] was “decreased cell proliferation”. Further, in series [6] (setting [11]), the 2-PG levels result is on record as “decreased 2-PG levels” and the 3-PG levels result is on record as “increased 3-PG”. In series [6] (setting [12]), the PGAM1 activity result is on record as “reduced PGAM1 activity”, the cell viability result is given as “decreased cell viability” and the lactate production entry is reported as “reduced”. For the same compound, in the series with H1299 cells [7], the cell proliferation entry is reported as “reduced”. In addition, the “histopathological analyses vs vehicle-treated group” value in the series with nude mice was “no notable differences”. The “tolerability of chronic injection” value in the series with nude mice (100mg/kg/day intraperitoneally, 4 weeks) is recorded as “well-tolerated dose”. Moreover, in the series on nude mice (100mg/kg/day, 7 days), the “body weight, complete blood counts (CBC), hematopoietic properties” value is on record as “did not result in significant alteration”. Moreover, the “non-specific toxicity (cell proliferation) in normal cells” value in series [8] is recorded as “minimal non-specific toxicity”. The “PGAM1 enzyme activity in resected tumors” value with H1299 xenograft (100mg/kg/day) is given as “effectively inhibits PGAM1 enzyme activity in tumors”. Also, the “tumor growth and tumor size” value in the series on H1299 xenograft (100mg/kg/day i.p., 21 days, vs vehicle) was “significantly decreased tumor growth and tumor size”.

`O=C1c2ccccc2C(=O)c2c1cc(S(=O)(=O)O)c(O)c2O` [alizarin Red S]: the “relative potency as PGAM1 inhibitor in vitro” value in series [9] is “more potent PGAM1 inhibitor”.

On to `O=C1c2ccccc2C(=O)c2c1ccc(O)c2O` [alizarin, 1,2-dihydroxyanthraquinone], for which the cell proliferation entry in series [10] is “decreased proliferation”.
